Results from patent US20140154180A1, “Pharmacophores for Amyloid Fibers Involved in Alzheimer's Disease” (The Regents of the University of California, priority 2011, published 2014).
pKd: −log10 of the molar value. Entries after “also recorded” stand apart in the source; their conditions may differ.

Columns and labels:
[1] = tested on: Aβ toxicity to PC12 cells; experiment: MTT cell viability assay, rescue from Abeta toxicity, PC12 cells; type: cell-based; conditions: Table 7; scaled cell survival rate, buffer-treated cell 100%, Abeta-treated cell 0%; Abeta 0.5 μM; 12 h incubation
Description: (§1) We tested candidate compounds by the MTT-based cell proliferation/viability assay, as described on the ATCC web site. Briefly, the ATCC MTT Cell Proliferation Assay quantitates the reduction of the yellow tetrazolium salt (MTT) in response to an external factor, such as treatment with a compound of the present invention, as a measure of a cell population's response to the external factor. The assay measures the cell proliferation rate and conversely, when metabolic events lead to apoptosis or necrosis, the reduction in cell viability. In our tests, Hela and PC12 cell lines were used to assess the toxic effect of Abeta protein. Abeta at 0.5 μM was a positive control. The small molecule inhibitors were added to samples with different concentrations (such as 2.5 μM). After 12 h incubation at room temperature, the absorbance of reduced MIT was measured at 570 nm. Each of the experiments was repeated 3 times with 4 replicates per sample per concentration. Our MTT cell viability assay quantified the percentage of survival cells upon the treatment of the mixture of Abeta and compound inhibitors. The rescuing percentage of each compound was calculated by normalizing the survival percentage using the buffer-treated cell as 100% viability and Abeta-treated cell as 0% viability.

[2] = target: Aβ fibrillation (Homo sapiens, UniProt P05067); experiment: Electron microscopy (EM) of Aβ with BAF compounds; conditions: Aβ with compound right before adding to the cell medium
[3] = target: T1, KLVFFA (SEQ ID NO: 1) fibers (Homo sapiens, UniProt P05067); experiment: 1H NMR titration with KLVFFA fibers; type: binding; conditions: compound 100 μM, increasing KLVFFA fiber concentrations, 283 K; read-out: apparent dissociation constant (Kd)
T1 construct: host or cells: chemically synthesized peptide
Protocol: As a validation of our computational approach, we used nuclear magnetic resonance (NMR) to characterize the interactions between our BAF compounds and KLVFFA (SEQ ID NO: 1) and Aβ fibers.
NMR samples contained 550 μL of designed compounds were added from 1 mM stocks in H2O to a final concentration of 100 μM. Fibrillar KLVFFA (SEQ ID NO: 1) and Abeta were added at the indicated concentrations. 500 MHz ^1H NMR spectra were collected on a Bruker DRX500 at 283 K. H2O resonance was suppressed through presaturation. Spectra were processed with XWINNMR 3.6.

[4] = tested on: Aβ toxicity to Hela cells; experiment: MTT cell viability assay, rescue from Abeta toxicity, Hela cells; type: cell-based; conditions: Table 7; scaled cell survival rate, buffer-treated cell 100%, Abeta-treated cell 0%; Abeta 0.5 μM; 12 h incubation
Description: as §1

[5] = tested on: Aβ toxicity to Hela and PC12 cell lines; experiment: MTT cell viability assay, Abeta toxicity, cell line not given; type: cell-based; conditions: FIG. 17B
Description: as §1

[6] = target: T2, VQIVYK (SEQ ID NO: 2) segment from the tau protein (Homo sapiens, UniProt P10636); experiment: LC-MSMS analysis of co-crystals, molar ratio, VQIVYK
T2 construct: host or cells: chemically synthesized peptide
Description: Liquid chromatography tandem mass spectrometry (LC-MSMS) was used to measure the molar ratios of the peptide segments and the small molecules within the crystals. Authentic samples of the peptides and each of the small molecules were used to prepare standard response curves. Crystals from each of the four mixtures of peptides and small compounds were individually picked (using a sharpened glass capillary) and re-dissolved in 5%-10% acetonitrile. The samples were divided into two aliquots, one for the peptide analyses and the other for the small molecule analyses, and the amount of each component in the samples was interpolated using the standard curves.
Peptide standards (dry powder of VQIVYK (SEQ ID NO: 2) and KLVFFA (SEQ ID NO: 1)) were dissolved in water and prepared in concentrations ranging from 0.05 μM to 0.01 mM in 0.1% TFA. […] Data were collected in the positive ion multiple reaction monitoring (MRM) mode in which the intensity of specific parent→fragment ion transitions were recorded (VQIVYK (SEQ ID NO: 2), m/z 749.5→341.3, 749.5→409.4, 749.5→440.3, 749.5→522.5; KLVFFA (SEQ ID NO: 1), 724.4→84, 724.4→488.3, 362.7→84, 362.7→120.1). […]

Chain of Aβ fibrillation (P05067 672-713): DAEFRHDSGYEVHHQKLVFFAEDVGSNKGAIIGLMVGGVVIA

Row | inhibition of Aβ fibrillation (EM) [2] | pKd [3] | VQIVYK segments for each small molecule [6] | SMILES | Rescuing Percentage PC12 [1] [%] | Rescuing Percentage Hela [4] [%] | dose dependence of reduction of Aβ cytotoxicity [5]
1 | do not inhibit Aβ fibrillation | ~4.62 | – | Cc1ccc(O)c(N=Nc2c(O)cc(S(=O)(=O)O)c3ccccc23)c1 [BAF8] | 25.1 | 27.1 | –
2 | – | – | ~400 | CC(=C(C#N)C#N)c1ccc2cc(N(C)C)ccc2c1 [DDNP, 1,1-Dicyano-2-[6-(dimethylamino)naphthalen-2-yl]propene] | – | – | –
3 | – | ~4.37 | – | O=S(=O)(O)c1cc(S(=O)(=O)O)c2c(/N=N/c3ccccc3)c(O)ccc2c1 [Orange-G, reference compound] | – | – | –
4 | – | – | ~100 | COc1cc(/C=C/C(=O)CC(=O)/C=C/c2ccc(O)c(OC)c2)ccc1O [curcumin, Curcumin] | – | – | –

Further lines, the compound ahead of its results:

Row | SMILES | inhibition of Aβ fibrillation (EM) [2] | pKd [3] | VQIVYK segments for each small molecule [6] | Rescuing Percentage PC12 [1] [%] | Rescuing Percentage Hela [4] [%] | dose dependence of reduction of Aβ cytotoxicity [5]
5 | O=C1OC2(c3ccccc31)c1cc(Br)c(O)c(Br)c1Oc1c2cc(Br)c(O)c1Br [BAF1] | do not inhibit Aβ fibrillation | ~4.92 | – | 44.3 | 41.3 | –
6 | O=c1c(O)c(-c2cc(O)c(O)c(O)c2)oc2cc(O)cc(O)c12 [BAF26] | – | – | – | 85.5 | 51.4 | –
7 | CCCN1CCc2cc(O)cc3c2C1Cc1ccc(O)c(O)c1-3 (centres unmarked) [BAF31] | do not inhibit Aβ fibrillation | – | – | 92.6 | 83.0 | reduce Aβ cytotoxicity in a dose dependent manner; also recorded: reduce Aβ cyto-toxicity in a dose dependent manner
